# Measured values from patent US20250352555A1, “METHOD OF INCREASING IMMUNE CELL ACTIVATION AND/OR TREATING CANCER USING DIBENZOXAZEPINONES” (VASCULAR THERAPEUTICS PTY LTD, priority 2022, published 2025).
# Legend:
# MeWo cells [1] = test: Migration assay (scratch), MeWo; format: cell-based, human; settings: 1 μM, 48 h, with greater potency than SCH772984
# Protocol: Migration assays. Cells were grown in medium containing 10% FBS in 6-well plates. The following day the cells were scratched with a sterile toothpick, washed with PBS, and incubated in medium containing 10% FBS and vehicle, BT2 or SCH772984 at 1 μM. At 0, 24 h and 48 h the cells were photographed under a 4× objective using an Olympus CKX41 microscope. To assess the effect of BT2 on melanoma cell migration, A375 and MeWo cells were incubated with 1 μM of BT2 or SCH772984, and A375 and MeWo migration into the denuded zone was quantified after 24 or 48 h, respectively.
# MeWo cells [2] = test: Apoptosis, flow cytometry with Annexin V-FITC, MeWo; format: cell-based, human; settings: 1 μM, 24 h
# Protocol: Flow cytometry with Annexin V-FITC. Cells were seeded into 6 well plates in normal culture medium containing 10% FBS. After culturing overnight, the cells were incubated in complete medium containing vehicle, BT2 or SCH772984 at 1 μM and left for 24 h. The culture medium was removed and the cells were washed with PBS. Accutase (Stem Cell Technologies, cat. no. 07920) was used to detach the cells. The cells were then washed and centrifuged at 300 g for 5 min and resuspended at 1×10^6 cells/ml in 500 μl of 1× binding buffer (Annexin V-FITC Apoptosis Staining/Detection Kit, Abcam, cat. no. ab14085). The cells were transferred to 12×75 mm tubes and annexin V-FITC/propidium iodide (PI) was added and incubated for 5 min at 22° C. protected from light. Stained cell suspensions were analyzed by flow cytometry using a BD LSRFortessa X20.
# The morphology of A375 and MeWo cells exposed to 1 μM of BT2 or SCH772984 for 24 h was also assessed.
# total ERK = test: Immunohistochemistry of B16F10 tumors (Day 17), total ERK; format: in vivo, mouse; settings: B16F10 tumors Day 17, 200 mg/kg i.p.
# From the text: Immunohistochemical staining and analyses. Rabbit monoclonal anti-CD3 (cat. no. ab16669; mouse, rat and human reactive), rabbit monoclonal anti-PD-1 (cat. no. ab214421), rabbit monoclonal anti-CD68 (cat. no. ab125212) antibodies were obtained from Abcam, rabbit monoclonal anti-phospho-ERK (Thr^202/Tyr^204) (cat. no. CST4370), rabbit monoclonal total ERK (cat. no. CST4695), antibodies were obtained from Cell Signaling Technology. Rabbit polyclonal anti-PD-L1 (cat. no. PA5-20343) antibody was obtained from ThermoFisher.
# Formalin fixed, paraffin embedded sections were prepared from tumors. Heat-induced epitope retrieval was applied to all deparaffinized sections (4 μm sections on Superfrost slides) with citrate buffer, pH 6.0 for 5 min at 110° C. […] Integrated optical density (IOD) or area of positive staining (red chromagen) was assessed using Image-Pro Plus software (Cybernetics, Bethesda, MD, USA). Positive staining was the average of quantitation in 4-8 fields of view under 20× or 40× objectives.
# To assess the effect of BT2 in the same model, C57BL/6J mice bearing s.c. B16F10 tumors were administered with BT2 or vehicle (200 mg/kg or 20 ml/kg, respectively, i.p.) once a day on a 5 days-on/2 days-off schedule. […] Tumor size on Day 17 measured using callipers (FIG. 10A) correlated with isolated weighed tumors (FIG. 10B).
# CD28 = CD28 blockade experiment, JUN Western blot in Jurkat T cells; format: cell-based, human; settings: 3 μM BT2 and 3 μM EGF, 24 h
# Protocol: CD28 blockade experiments. BT2 (3 nmol), vehicle or a mix of BT2 (3 nmol) and recombinant CD28 (3 nmol, Sino biological cat. no. 90182-C08H) or EGF (3 nmol, Sigma cat. no. E9644) in 150 μl growth medium (10% FBS/RPMI 1640 medium) was preincubated for 30 min at 37° C. The mixtures were added to 12-well plates containing 850 μl of 10% FBS/RPMI 1640 medium and 0.5×10^6 Jurkat T cells/well. After 24 h, total cell lysates were prepared in RIPA buffer. Lysates (10 μg) were resolved by SDS-PAGE and transferred to Immobilon-P polyvinylidene difluoride (PVDF) membranes (Millipore, USA). Membranes were blocked with 5% skim milk and incubated with rabbit monoclonal anti-JUN (Abcam, cat. no. ab32137) antibody, mouse monoclonal β-actin antibody (Sigma-Aldrich, cat. no. A5316), This was followed by incubation with horseradish peroxidase-conjugated secondary goat anti-rabbit (DAKO, cat. no. P0448) or goat anti-mouse (DAKO, cat. no. P0447) antibody. Chemiluminescence was detected using the Western Lightning Chemiluminescence system (Thermo Scientific, USA) and ImageQuant™ LAS 4000 biomolecular imager (GE Healthcare Life Sciences, USA). Band intensity in images generated with the LAS 4000 was quantified using NIH Image J. […]
smiles,measurement,setting,value
"CCOC(=O)Nc1ccc2c(c1)C(=O)N(CC)c1ccccc1O2 [BT2, (10-ethyl-11-oxo-10,11-dihydro-dibenzo[b,f][1,4]oxazepin-2-yl)-carbamic acid ethyl ester]",migration into the denuded zone,MeWo cells [1],suppressed melanoma migration
same,apoptosis (Annexin V-FITC+ PI−),MeWo cells [2],increased apoptosis
same,total ERK levels in tumors (IHC),total ERK,without affecting total ERK levels
same,induction of JUN after preincubation of BT2 with EGF,CD28,still induced JUN
